Assay results: US20060258729A1, “Antibacterial pyrazole carboxylic acid hydrazides” (priority 2002, published 2006)
≈ marks a conversion by molar mass, not a printed value.

Experiments:
[1] = biological target: T1, B. subtilis pol IIIC (Bacillus subtilis, UniProt P13267); experiment: DNA polymerase assay, B. subtilis pol IIIC; format: biochemical; conditions: for Percent Enzymatic Inhibition B. subtilis pol IIIC / inhibition at 80 µg/mL: 80 μg/mL (190-260 μM) final concentration, all four dNTPs; for B. subtilis Pol IIIC IC50, 4 dNTPs: in the presence of all four dNTP substrates; for inhibition at 80 µg/mL: read-out: Percent Enzymatic Inhibition B. subtilis pol IIIC
T1 construct: made in house
T1 sequence (P13267 whole entry): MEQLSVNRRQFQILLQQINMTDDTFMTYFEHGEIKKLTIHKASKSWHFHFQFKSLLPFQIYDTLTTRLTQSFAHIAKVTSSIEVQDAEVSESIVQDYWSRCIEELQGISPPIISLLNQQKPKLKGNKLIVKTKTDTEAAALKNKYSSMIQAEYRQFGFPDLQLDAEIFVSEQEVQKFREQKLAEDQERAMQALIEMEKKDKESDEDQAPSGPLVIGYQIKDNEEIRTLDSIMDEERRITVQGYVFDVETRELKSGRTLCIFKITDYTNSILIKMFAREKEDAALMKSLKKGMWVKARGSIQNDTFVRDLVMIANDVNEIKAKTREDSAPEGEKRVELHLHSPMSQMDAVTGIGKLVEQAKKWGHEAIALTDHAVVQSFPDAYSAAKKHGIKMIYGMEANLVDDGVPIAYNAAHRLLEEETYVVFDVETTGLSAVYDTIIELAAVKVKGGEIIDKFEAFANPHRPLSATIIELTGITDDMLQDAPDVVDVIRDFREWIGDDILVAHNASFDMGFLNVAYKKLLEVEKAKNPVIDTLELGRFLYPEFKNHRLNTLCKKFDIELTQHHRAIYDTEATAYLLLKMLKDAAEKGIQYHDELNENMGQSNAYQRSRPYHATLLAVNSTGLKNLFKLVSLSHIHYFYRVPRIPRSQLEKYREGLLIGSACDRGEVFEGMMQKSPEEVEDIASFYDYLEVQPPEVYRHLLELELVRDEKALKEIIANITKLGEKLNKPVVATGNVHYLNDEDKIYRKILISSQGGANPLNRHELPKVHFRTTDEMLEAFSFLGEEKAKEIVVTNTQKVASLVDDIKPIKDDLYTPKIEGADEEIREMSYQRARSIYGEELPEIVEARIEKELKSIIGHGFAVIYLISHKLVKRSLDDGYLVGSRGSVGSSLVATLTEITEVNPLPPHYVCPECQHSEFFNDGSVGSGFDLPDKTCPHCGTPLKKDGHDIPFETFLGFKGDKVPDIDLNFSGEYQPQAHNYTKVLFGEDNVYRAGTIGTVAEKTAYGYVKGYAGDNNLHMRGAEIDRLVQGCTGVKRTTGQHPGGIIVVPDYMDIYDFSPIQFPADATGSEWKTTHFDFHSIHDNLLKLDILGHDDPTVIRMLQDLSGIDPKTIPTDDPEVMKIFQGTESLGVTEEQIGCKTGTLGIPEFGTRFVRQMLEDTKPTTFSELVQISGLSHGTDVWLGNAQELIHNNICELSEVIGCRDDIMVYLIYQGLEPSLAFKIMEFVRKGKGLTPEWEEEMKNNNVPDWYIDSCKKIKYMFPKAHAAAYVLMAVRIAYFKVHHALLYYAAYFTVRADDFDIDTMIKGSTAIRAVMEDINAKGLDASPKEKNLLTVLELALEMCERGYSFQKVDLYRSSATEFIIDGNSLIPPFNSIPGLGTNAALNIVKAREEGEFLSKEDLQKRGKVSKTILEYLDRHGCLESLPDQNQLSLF
Protocol: Recombinant, purified pol IIIC and pol IIIE from Bacillus subtilis were obtained using known methods (Hammond et al., Gene 98: 29-36 (1991), regarding pol IIIC; Barnes et al., J. Bacteriol. 184, 3834-3838 (2002), regarding pol IIIE). Recombinant, purified pol IIIE from Escherichia coli was obtained from a commercial source (Enzyco, Denver, Colo.). The enzyme assays were performed in 96-well plate format using the same assay mix for all three enzymes. […] Dilutions of compounds were added to the plate in 1% DMSO (1 μL/well). Assays were initiated by the addition of 0.025 to 0.06 units of enzyme (1 unit is the amount required to incorporate 250 pmoles of [^3H] dTMP in a standard assay), incubated for 10 min at 30° C. and terminated by the addition of 200 μL of cold 10% trichloroacetic acid, 10 mM sodium pyrophosphate. Precipitated labeled DNA was collected on glass fiber filter plates that had been pre-wet with ice cold 1 M HCl, 100 mM sodium pyrophosphate. The plates were washed with the HCl solution followed by ice cold 90% ethanol and then dried and counted in a liquid scintillation counter. […] In addition, percent inhibition values are calculated as the percent reduction in the activity of a DMSO (diluent) control.

[2] = biological target: T2, B. subtilis pol IIIE (Bacillus subtilis, UniProt O34623); experiment: DNA polymerase assay, B. subtilis pol IIIE; format: biochemical; conditions: for inhibition at 80 µg/mL / Percent Enzymatic Inhibition B. subtilis pol IIIE: 80 μg/mL (190-260 μM) final concentration, all four dNTPs; for inhibition at 80 µg/mL: read-out: Percent Enzymatic Inhibition B. subtilis pol IIIE; for IC50: B. subtilis Pol IIIE IC50, 4 dNTPs
T2 construct: made in house
T2 sequence (O34623 whole entry): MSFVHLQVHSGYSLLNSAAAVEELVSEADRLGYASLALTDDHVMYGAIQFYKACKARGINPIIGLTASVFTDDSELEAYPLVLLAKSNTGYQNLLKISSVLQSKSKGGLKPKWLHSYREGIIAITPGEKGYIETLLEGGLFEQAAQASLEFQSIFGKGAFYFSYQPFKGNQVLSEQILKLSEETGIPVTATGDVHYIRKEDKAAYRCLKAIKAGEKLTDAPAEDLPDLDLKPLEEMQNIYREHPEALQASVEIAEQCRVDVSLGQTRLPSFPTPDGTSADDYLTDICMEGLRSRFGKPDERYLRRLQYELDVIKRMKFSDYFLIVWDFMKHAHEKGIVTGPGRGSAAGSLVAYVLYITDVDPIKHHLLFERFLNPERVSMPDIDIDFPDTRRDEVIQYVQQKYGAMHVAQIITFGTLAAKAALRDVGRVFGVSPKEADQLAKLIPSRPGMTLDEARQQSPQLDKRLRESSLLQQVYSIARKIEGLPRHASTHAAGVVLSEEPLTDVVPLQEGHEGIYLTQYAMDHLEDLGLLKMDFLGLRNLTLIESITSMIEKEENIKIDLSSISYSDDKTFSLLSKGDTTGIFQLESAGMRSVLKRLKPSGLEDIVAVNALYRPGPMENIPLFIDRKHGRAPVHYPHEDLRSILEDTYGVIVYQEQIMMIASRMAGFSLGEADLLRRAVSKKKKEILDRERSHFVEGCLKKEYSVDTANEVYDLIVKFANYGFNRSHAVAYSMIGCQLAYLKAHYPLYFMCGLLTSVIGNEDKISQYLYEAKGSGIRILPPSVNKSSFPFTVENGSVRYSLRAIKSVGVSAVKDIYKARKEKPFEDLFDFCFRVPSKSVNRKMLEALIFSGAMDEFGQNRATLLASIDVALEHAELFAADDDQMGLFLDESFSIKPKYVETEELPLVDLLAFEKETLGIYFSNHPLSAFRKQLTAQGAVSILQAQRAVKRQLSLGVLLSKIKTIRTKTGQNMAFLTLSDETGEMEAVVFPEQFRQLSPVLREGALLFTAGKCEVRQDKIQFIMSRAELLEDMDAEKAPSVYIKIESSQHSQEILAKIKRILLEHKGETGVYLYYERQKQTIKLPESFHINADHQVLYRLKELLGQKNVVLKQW
Protocol: (§1) Recombinant, purified pol IIIC and pol IIIE from Bacillus subtilis were obtained using known methods (Hammond et al., Gene 98: 29-36 (1991), regarding pol IIIC; Barnes et al., J. Bacteriol. 184, 3834-3838 (2002), regarding pol IIIE). Recombinant, purified pol IIIE from Escherichia coli was obtained from a commercial source (Enzyco, Denver, Colo.). The enzyme assays were performed in 96-well plate format using the same assay mix for all three enzymes. Each 25 μL assay contained 30 mM Tris, pH 7.5, 10 mM magnesium acetate, 4 mM dithiothreitol, 20% glycerol, with 10 μM dATP, dCTP, dGTP and dTTP (3H-labelled at 1.44 Ci/mmole) and 0.4 mg/mL activated calf thymus DNA as substrates. Dilutions of compounds were added to the plate in 1% DMSO (1 μL/well). Assays were initiated by the addition of 0.025 to 0.06 units of enzyme (1 unit is the amount required to incorporate 250 pmoles of [^3H] dTMP in a standard assay), incubated for 10 min at 30° C. and terminated by the addition of 200 μL of cold 10% trichloroacetic acid, 10 mM sodium pyrophosphate. Precipitated labeled DNA was collected on glass fiber filter plates that had been pre-wet with ice cold 1 M HCl, 100 mM sodium pyrophosphate. The plates were washed with the HCl solution followed by ice cold 90% ethanol and then dried and counted in a liquid scintillation counter. The calculated IC50 is the concentration needed to inhibit 50% of the DNA polymerase activity in the presence of all four dNTP substrates. In addition, percent inhibition values are calculated as the percent reduction in the activity of a DMSO (diluent) control.

[3] = biological target: T3, E. coli pol IIIE (Escherichia coli, UniProt P10443); experiment: DNA polymerase assay, E. coli pol IIIE; format: biochemical; conditions: 80 μg/mL (190-260 μM) final concentration, all four dNTPs
T3 construct: purchased Enzyco, Denver, Colo
T3 sequence (P10443 whole entry): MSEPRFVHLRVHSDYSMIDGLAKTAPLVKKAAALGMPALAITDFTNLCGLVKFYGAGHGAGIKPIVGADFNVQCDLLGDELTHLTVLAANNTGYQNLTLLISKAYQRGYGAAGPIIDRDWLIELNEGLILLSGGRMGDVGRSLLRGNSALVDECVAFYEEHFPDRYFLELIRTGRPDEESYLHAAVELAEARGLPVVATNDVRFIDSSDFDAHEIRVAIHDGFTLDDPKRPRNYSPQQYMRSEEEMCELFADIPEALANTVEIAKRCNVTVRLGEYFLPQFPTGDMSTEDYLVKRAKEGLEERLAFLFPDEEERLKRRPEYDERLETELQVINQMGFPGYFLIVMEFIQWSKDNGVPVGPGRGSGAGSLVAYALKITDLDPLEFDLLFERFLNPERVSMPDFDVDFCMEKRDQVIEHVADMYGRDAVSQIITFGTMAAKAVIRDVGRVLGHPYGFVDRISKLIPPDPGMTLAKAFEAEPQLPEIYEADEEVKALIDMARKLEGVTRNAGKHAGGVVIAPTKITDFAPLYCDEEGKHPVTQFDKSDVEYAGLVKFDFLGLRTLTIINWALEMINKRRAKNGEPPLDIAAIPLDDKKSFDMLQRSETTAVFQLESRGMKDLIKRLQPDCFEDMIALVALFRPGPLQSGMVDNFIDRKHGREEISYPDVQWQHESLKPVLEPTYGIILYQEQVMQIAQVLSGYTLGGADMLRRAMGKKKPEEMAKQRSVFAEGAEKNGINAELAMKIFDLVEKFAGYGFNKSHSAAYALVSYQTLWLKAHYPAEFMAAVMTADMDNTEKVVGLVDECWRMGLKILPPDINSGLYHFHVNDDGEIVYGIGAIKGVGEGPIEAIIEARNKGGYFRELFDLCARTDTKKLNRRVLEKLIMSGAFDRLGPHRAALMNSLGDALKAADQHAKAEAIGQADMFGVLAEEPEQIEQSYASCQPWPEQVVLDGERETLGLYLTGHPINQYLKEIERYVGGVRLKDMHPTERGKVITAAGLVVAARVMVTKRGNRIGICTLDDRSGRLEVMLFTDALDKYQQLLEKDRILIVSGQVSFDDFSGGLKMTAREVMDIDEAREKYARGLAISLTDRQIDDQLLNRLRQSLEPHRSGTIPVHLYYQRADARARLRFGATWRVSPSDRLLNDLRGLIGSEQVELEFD
Protocol: as §1

[4] = test system: Bacillus subtilis strain BD54; experiment: Inhibition of bacterial growth (MIC), Bs; format: cell-based; conditions: 16 to 18 hours, 37° C.; for MIC: read-out: Minimum Inhibitory Concentration for Bacterial Growth, Bs
Protocol: (§2) Each compound was assayed against a panel of a strain of Bacillus subtilis, of strains of antibiotic-resistant and sensitive Enterococcus and Staphylococcus species, and of a strain of the Gram-negative bacterium Escherichia coli. Compounds were dissolved in DMSO at 100× the desired highest concentration and added to one well of a 96-well microassay plate. Two-fold serial drug dilutions were made across the plate in DMSO to yield 11 concentrations (usually 80-0.078 μg/mL) plus an untreated control. Drugs were then transferred to fresh plates using 1.5 μL per well. Log phase cultures were diluted to yield a concentration of 1×10^5 colony forming units/mL in either LB or BHI medium and transferred to the plates containing drug for a final volume of 150 μL. Each well, including the DMSO controls, contained a final concentration of 1% DMSO. Plates were incubated with shaking at 37° C. for 16 to 18 hours. Cell growth was determined by measuring optical density (570 nm, 1 cm path length) in a microplate reader. MIC (minimum inhibitory concentration) is equivalent to the lowest concentration at which growth is not observed. The bacterial strains and MIC determinations have been well characterized and are described elsewhere (Tarantino et al., Antimicrob. Agents Chemother., 43: 1982-1987 (1999); Daly et al., Antimicrob. Agents Chemother., 44: 2217-2221 (2000)).

[5] = test system: Staphylococcus aureus strain IP 8; experiment: Inhibition of bacterial growth (MIC), Sa; format: cell-based; conditions: 37° C.; for MIC: IP8, 16 to 18 hours, read-out: Minimum Inhibitory Concentration for Bacterial Growth, Sa; for Minimum Inhibitory Concentration for Bacterial Growth, Sa: 16 to 18 hours
Protocol: as §2

[6] = test system: S. aureus Smith strain; experiment: Inhibition of bacterial growth (MIC), Sm; format: cell-based, Staphylococcus aureus; conditions: 16 to 18 hours, 37° C.; for MIC: Staphylococcus aureus, read-out: Minimum Inhibitory Concentration for Bacterial Growth, Sm
Protocol: as §2

[7] = test system: methicillin-resistant S. aureus strain 1094; experiment: Inhibition of bacterial growth (MIC), MRSA; format: cell-based, Staphylococcus aureus; conditions: 16 to 18 hours, 37° C.; for MIC: Staphylococcus aureus, MRSA, read-out: Minimum Inhibitory Concentration for Bacterial Growth, MRSA
Protocol: as §2

[8] = test system: Enterococcus faecalis strain 29212; experiment: Inhibition of bacterial growth (MIC), Efcl; format: cell-based; conditions: 16 to 18 hours, 37° C.; for MIC: read-out: Minimum Inhibitory Concentration for Bacterial Growth, Efcl
Protocol: as §2

[9] = test system: E. faecium clinical isolate; experiment: Inhibition of bacterial growth (MIC), Efcm; format: cell-based; conditions: 16 to 18 hours, 37° C.; for MIC: Enterococcus faecium, read-out: Minimum Inhibitory Concentration for Bacterial Growth, Efcm
Protocol: as §2

[10] = test system: vancomycin-resistant Enterococcus strain B42762; experiment: Inhibition of bacterial growth (MIC), VRE; format: cell-based; conditions: 16 to 18 hours, 37° C.; for MIC: VRE, read-out: Minimum Inhibitory Concentration for Bacterial Growth, VRE
Protocol: as §2

[11] = test system: Escherichia coli strain J53; experiment: Inhibition of bacterial growth (MIC), Ec; format: cell-based; conditions: 16 to 18 hours, 37° C.; for MIC: read-out: Minimum Inhibitory Concentration for Bacterial Growth, Ec
Protocol: as §2

[12] = biological target: T2, B. subtilis pol IIIE; experiment: DNA polymerase assay, B. subtilis pol IIIE; format: biochemical
[13] = B. subtilis Pol IIIC IC50, −dATP, in the absence of dATP
[14] = B. subtilis Pol IIIC IC50, −dCTP, in the absence of dCTP
[15] = B. subtilis Pol IIIC IC50, −dGTP, in the absence of dGTP
[16] = in the presence of all four dNTP substrates
[17] = B. subtilis Pol IIIE IC50, −dATP, in the absence of dATP
[18] = B. subtilis Pol IIIE IC50, −dCTP, in the absence of dCTP
[19] = B. subtilis Pol IIIE IC50, −dGTP, in the absence of dGTP

Compound	Percent Enzymatic Inhibition B. subtilis pol IIIC [1]	IC50 [1, 13] [µM]	IC50 [1, 14] [µM]	IC50 [1, 15] [µM]	B. subtilis Pol IIIC IC50, 4 dNTPs [1]	inhibition at 80 µg/mL [2] [%]	IC50 [2, 16] [µM]	MIC [4] [mg/L]	MIC [5] [mg/L]	MIC [6] [mg/L]	MIC [7] [mg/L]	MIC [8] [mg/L]	MIC [9] [mg/L]	MIC [10] [mg/L]	MIC [11] [mg/L]	IC50 [12, 17] [µM]	IC50 [12, 18] [µM]	IC50 [12, 19] [µM]	inhibition at 80 µg/mL [1] [%]	Percent Enzymatic Inhibition E. coli pol IIIE [3]	also measured
COc1cccc(-c2cc(C(=O)NN=Cc3ccc(OC)c(OC)c3)[nH]n2)c1 [Compound 2]	Inactive	99	287	406	Inactive	> 20	604	20 (≈ 52.6 µM)	10 (≈ 26.3 µM)	20 (≈ 52.6 µM)	20 (≈ 52.6 µM)	40 (≈ 105 µM)	60 (≈ 158 µM)	40 (≈ 105 µM)	> 80	57	104	78			inhibition at 80 µg/mL ([3]; read-out: Percent Enzymatic Inhibition E. coli pol IIIE): 1.7%
CCOc1cc(C=NNC(=O)c2cc(-c3cccc(OC)c3)n[nH]2)ccc1O [Compound 3]		141	563	301	Inactive	> 20		> 80	20 (≈ 52.6 µM)	40 (≈ 105 µM)	40 (≈ 105 µM)	80 (≈ 210 µM)	80 (≈ 210 µM)	40 (≈ 105 µM)	> 80	124	222	311	5.3	Inactive	B. subtilis Pol IIIE IC50, 4 dNTPs [2, 16]: Inactive
O=C(NN=Cc1ccc(O)cc1O)c1cc(-c2ccccc2)n[nH]1 [Compound 4]		81	228	98	Inactive	> 20	699	40 (≈ 124 µM)	30 (≈ 93.1 µM)	60 (≈ 186 µM)	40 (≈ 124 µM)	> 80	30 (≈ 93.1 µM)	> 80	> 80	278	347	183	15.8	Inactive	
COc1cccc(-c2cc(C(=O)NN=Cc3ccc(O)cc3)[nH]n2)c1 [Compound 14]	0.5%																			Inactive	Percent Enzymatic Inhibition B. subtilis pol IIIE [2]: 18.1%; Minimum Inhibitory Concentration for Bacterial Growth, Bs [4]: >80 µg/mL; Minimum Inhibitory Concentration for Bacterial Growth, Sa [5]: 80 µg/mL; Minimum Inhibitory Concentration for Bacterial Growth, Sm [6]: 80 µg/mL; Minimum Inhibitory Concentration for Bacterial Growth, MRSA [7]: 80 µg/mL; Minimum Inhibitory Concentration for Bacterial Growth, Efcl [8]: >80 µg/mL; Minimum Inhibitory Concentration for Bacterial Growth, Efcm [9]: >80 µg/mL; Minimum Inhibitory Concentration for Bacterial Growth, VRE [10]: 80 µg/mL; Minimum Inhibitory Concentration for Bacterial Growth, Ec [11]: >80 µg/mL
COc1ccc(C=NNC(=O)c2cc(-c3ccc(Cl)cc3)n[nH]2)cc1OC [Compound 15]	Inactive																			Inactive	Percent Enzymatic Inhibition B. subtilis pol IIIE [2]: 13.7%; Minimum Inhibitory Concentration for Bacterial Growth, Bs [4]: >80 µg/mL; Minimum Inhibitory Concentration for Bacterial Growth, Sa [5]: 8 µg/mL; Minimum Inhibitory Concentration for Bacterial Growth, Sm [6]: >80 µg/mL; Minimum Inhibitory Concentration for Bacterial Growth, MRSA [7]: >80 µg/mL; Minimum Inhibitory Concentration for Bacterial Growth, Efcl [8]: >80 µg/mL; Minimum Inhibitory Concentration for Bacterial Growth, Efcm [9]: 40 µg/mL; Minimum Inhibitory Concentration for Bacterial Growth, VRE [10]: >80 µg/mL; Minimum Inhibitory Concentration for Bacterial Growth, Ec [11]: >80 µg/mL
